Data taken from ChEMBL document CHEMBL1201862, “PubChem BioAssay data set” (2004).
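Five concentrations, 48 hours, 96-well plates. The concentration for 50% growth inhibition is given as GI50.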 Active and inactive are the calls of the source. No stated cut-off is given here; in the data, active = GI50 up to about 1.1 µM and inactive = higher.

How the values were obtained:
Test in all cases: NCI-60 cell line screen, 48 h
HT-29 = test system: HT-29
K562 = test system: K562
COLO 205 = test system: COLO 205
SF-268 = test system: SF-268
SNB-19 = test system: SNB-19
OVCAR-8 = test system: OVCAR-8
M14 = test system: M14
UACC-62 = test system: UACC-62
DLD-1 = test system: DLD-1
RXF 393 = test system: RXF 393
LXFL 529 = test system: LXFL 529
SK-MEL-28 = test system: SK-MEL-28
HCT-116 = test system: HCT-116
SK-OV-3 = test system: SK-OV-3
HCC 2998 = test system: HCC 2998
HOP-92 = test system: HOP-92
OVCAR-4 = test system: OVCAR-4
NCI-H226 = test system: NCI-H226
A498 = test system: A498
IGROV-1 = test system: IGROV-1
SK-MEL-2 = test system: SK-MEL-2
CAKI-1 = test system: CAKI-1
SF-295 = test system: SF-295
KM-20L2 = test system: KM-20L2
SW-620 = test system: SW-620
SN12C = test system: SN12C
KM12 = test system: KM12
NCI-H460 = test system: NCI-H460
786-0 = test system: 786-0
SF-539 = test system: SF-539
NCI-H522 = test system: NCI-H522
DMS-273 = test system: DMS-273
NCI-H23 = test system: NCI-H23
SNB-75 = test system: SNB-75
HOP-62 = test system: HOP-62
M19-MEL = test system: M19-MEL
A549 = test system: A549
CCRF-CEM = test system: CCRF-CEM
ACHN = test system: ACHN
OVCAR-5 = test system: OVCAR-5
XF498 = test system: XF498
UO-31 = test system: UO-31
TK-10 = test system: TK-10
SK-MEL-5 = test system: SK-MEL-5
SR = test system: SR
OVCAR-3 = test system: OVCAR-3
DMS-114 = test system: DMS-114
RPMI-8226 = test system: RPMI-8226
U-251 = test system: U-251
HCT-15 = test system: HCT-15
EKVX = test system: EKVX
Malme-3M = test system: Malme-3M
MOLT-4 = test system: MOLT-4
LOX IMVI = test system: LOX IMVI
HL-60 = test system: HL-60
UACC-257 = test system: UACC-257
HOP-18 = test system: HOP-18
SNB-78 = test system: SNB-78
RXF 631 = test system: RXF 631

In the case of `CN(C)CC1CC/C(=C\c2ccc(Cl)c(Cl)c2)C1=O` (configuration not stated), the GI50 (HT-29) is reported as 25.5 µM (inactive), the GI50 (K562) is reported as 5.58 µM (inactive) and the GI50 (COLO 205) is reported as 32.9 µM (inactive). The GI50 (SF-268) was 31.6 µM (inactive), the GI50 (SNB-19) was 37.3 µM (inactive) and the GI50 (OVCAR-8) was 25.6 µM (inactive). The GI50 (M14) was 18.9 µM (inactive), the GI50 (UACC-62) was 17.6 µM (inactive) and the GI50 (DLD-1) was 16 µM (inactive). For the same compound, the GI50 (RXF 393) was > 45.4 µM (inactive), the GI50 (LXFL 529) was 13.2 µM (inactive) and the GI50 (SK-MEL-28) was 39.3 µM (inactive). For the same compound, the GI50 (HCT-116) was 24.3 µM (inactive), the GI50 (SK-OV-3) was > 100 µM (inactive) and the GI50 (HCC 2998) was > 40.8 µM (inactive). For the same compound, the GI50 (HOP-92) was 17.7 µM (inactive), the GI50 (OVCAR-4) was 19 µM (inactive) and the GI50 (NCI-H226) was > 100 µM (inactive). For the same compound, the GI50 (A498) was 30.2 µM (inactive), the GI50 (IGROV-1) was > 50.4 µM (inactive) and the GI50 (SK-MEL-2) was > 45.1 µM (inactive). The GI50 (CAKI-1) was 14.8 µM (inactive), the GI50 (SF-295) was 48.6 µM (inactive) and the GI50 (KM-20L2) was > 34.5 µM (inactive). For the same compound, the GI50 (SW-620) was 24.3 µM (inactive), the GI50 (SN12C) was > 38.9 µM (inactive) and the GI50 (KM12) was 11.5 µM (inactive). For the same compound, the GI50 (NCI-H460) was 17.4 µM (inactive), the GI50 (786-0) was 11.7 µM (inactive) and the GI50 (SF-539) was > 40.5 µM (inactive). The GI50 (NCI-H522) was 6.38 µM (inactive), the GI50 (DMS-273) was 28.8 µM (inactive) and the GI50 (NCI-H23) was 20.6 µM (inactive). The GI50 (SNB-75) was > 41.7 µM (inactive), the GI50 (HOP-62) was > 58.2 µM (inactive) and the GI50 (M19-MEL) was 29.4 µM (inactive). The GI50 (A549) was > 100 µM (inactive), the GI50 (CCRF-CEM) was 2.49 µM (inactive) and the GI50 (ACHN) was > 45.1 µM (inactive). The GI50 (OVCAR-5) was > 55.2 µM (inactive), the GI50 (XF498) was > 46.8 µM (inactive) and the GI50 (UO-31) was > 40.6 µM (inactive). For the same compound, the GI50 (TK-10) was 13.2 µM (inactive), the GI50 (SK-MEL-5) was 45.7 µM (inactive) and the GI50 (SR) was 2.2 µM (inactive). The GI50 (OVCAR-3) was 28.3 µM (inactive), the GI50 (DMS-114) was > 47.8 µM (inactive) and the GI50 (RPMI-8226) was 1.95 µM (inactive). The GI50 (U-251) was > 42.3 µM (inactive), the GI50 (HCT-15) was 12.7 µM and the GI50 (EKVX) was 39.3 µM (inactive). The GI50 (Malme-3M) was > 62.5 µM (inactive), the GI50 (MOLT-4) was 4.76 µM (inactive) and the GI50 (LOX IMVI) was 13.5 µM (inactive). The GI50 (HL-60) was 0.586 µM (active), the GI50 (UACC-257) was 24.7 µM (inactive) and the GI50 (HOP-18) was > 62.4 µM (inactive). For the same compound, the GI50 (SNB-78) was 31.5 µM (inactive).
With `Cc1cc(=O)oc2cc(OCc3nc4ccccc4c(=O)n3-c3ccccc3)ccc12` the GI50 (HT-29) was > 100 µM (inactive), the GI50 (K562) was > 100 µM (inactive) and the GI50 (COLO 205) was > 100 µM (inactive). The GI50 (SF-268) was > 100 µM (inactive), the GI50 (SNB-19) was 27.5 µM (inactive) and the GI50 (OVCAR-8) was 45.1 µM (inactive). The GI50 (M14) was > 100 µM (inactive), the GI50 (UACC-62) was > 100 µM (inactive) and the GI50 (DLD-1) was > 100 µM (inactive). For the same compound, the GI50 (RXF 393) was 34 µM (inactive), the GI50 (LXFL 529) was > 100 µM (inactive) and the GI50 (SK-MEL-28) was > 100 µM (inactive). For the same compound, the GI50 (HCT-116) was > 100 µM (inactive), the GI50 (SK-OV-3) was 53.6 µM (inactive) and the GI50 (HCC 2998) was > 100 µM (inactive). The GI50 (HOP-92) was 28.1 µM (inactive), the GI50 (OVCAR-4) was > 100 µM (inactive) and the GI50 (NCI-H226) was > 100 µM (inactive). For the same compound, the GI50 (A498) was > 100 µM (inactive), the GI50 (IGROV-1) was > 100 µM (inactive) and the GI50 (SK-MEL-2) was > 100 µM (inactive). The GI50 (CAKI-1) was > 100 µM (inactive), the GI50 (SF-295) was 58.2 µM (inactive) and the GI50 (KM-20L2) was > 100 µM (inactive). For the same compound, the GI50 (SW-620) was > 100 µM (inactive), the GI50 (SN12C) was > 100 µM (inactive) and the GI50 (KM12) was > 100 µM (inactive). The GI50 (RXF 631) was > 100 µM (inactive), the GI50 (NCI-H460) was > 100 µM (inactive) and the GI50 (786-0) was 38.4 µM (inactive). The GI50 (SF-539) was > 100 µM (inactive), the GI50 (NCI-H522) was > 100 µM (inactive) and the GI50 (DMS-273) was > 100 µM (inactive). The GI50 (NCI-H23) was > 100 µM (inactive), the GI50 (SNB-75) was 20.7 µM (inactive) and the GI50 (HOP-62) was 97.7 µM (inactive). For the same compound, the GI50 (M19-MEL) was > 100 µM (inactive), the GI50 (A549) was > 100 µM (inactive) and the GI50 (CCRF-CEM) was > 100 µM (inactive). The GI50 (ACHN) was > 100 µM (inactive), the GI50 (OVCAR-5) was > 100 µM (inactive) and the GI50 (TK-10) was > 100 µM (inactive). The GI50 (SK-MEL-5) was > 100 µM (inactive), the GI50 (OVCAR-3) was > 100 µM (inactive) and the GI50 (DMS-114) was > 100 µM (inactive). The GI50 (RPMI-8226) was > 100 µM (inactive), the GI50 (U-251) was 54.7 µM (inactive) and the GI50 (HCT-15) was > 100 µM. The GI50 (EKVX) was > 100 µM (inactive), the GI50 (Malme-3M) was > 100 µM (inactive) and the GI50 (MOLT-4) was > 100 µM (inactive). For the same compound, the GI50 (LOX IMVI) was > 100 µM (inactive), the GI50 (HL-60) was > 100 µM (inactive) and the GI50 (HOP-18) was > 100 µM (inactive).
